The values below come from patent US11117869B2, “Compounds, compositions and methods for treatment of myopia” (Aerie Pharmaceuticals, Inc., priority 2019, dated 2021).

Molecules are shown by their SMILES.

In experiment [1] the test system is myopia. As to the kind of experiment: Topical eye drop composition (Table 3): myopia progression or onset. Particulars: drop 2 times per day, human subject.
Experiment [2] in a line: Topical eye drop composition (Table 3): intraocular pressure. Type of experiment: in vivo.
The nature of experiment [3]: Topical eye drop composition (Table 3): allergic symptoms, dry eye, hyperemia, irritation.

In the case of `CN1C2CCC1CC(NC(=O)C(CO)c1ccccc1)C2` (centres unmarked) [Compound E23], the “rate of myopia progression” value in experiment [1] is reported as “substantially decreases”.

Consider `CN1C2CCC1CC(NC(=O)[C@H](CN)c1ccc(CO)cc1)C2` (stereo partly drawn) [Compound E20S, (S)-3-amino-2-(4-(hydroxymethyl)phenyl)-N-((1R,3-endo,5S)-8-methyl-8-azabicyclo[3.2.]octan-3-yl)propanamide ditosylate], for which the intraocular pressure result in experiment [2] is “substantially decreases”. The allergic symptoms result in experiment [3] (in vivo) was “substantially decreases”.

In the case of `CN1C2CCC1CC(OC(=O)C(C)(CO)c1ccccc1)C2` (centres unmarked) [Compound E22R], the “hyperemia, redness and ocular irritation” value in experiment [3] (drop as needed) is on record as “substantially decreases”.

On to `CN1C2CCC1CC(OC(=O)C(CO)c1cccc(Cl)c1)C2` (centres unmarked) [Compound E21], for which, in experiment [2], the intraocular pressure result is listed as “substantially decreases”.
